In ChEMBL document CHEMBL5120953, “Novel Macrocyclic 1,3,4-Oxadiazoles as CFTR Modulators for Treating Cystic Fibrosis” (ACS Med Chem Lett, 2022):

Assay: Modulation of CFTR F508 deletion/MF mutant in HBE cells assessed as change in short circuit current incubated for 18 to 24 hrs in presence of forskolin and amiloride by voltage-clamp based chamber assay
Assay type: cell-based
Conditions: Homo sapiens

EC50, < 500 nM:
Nc1cc(S(=O)(=O)c2ccccc2)c2nc1-c1nnc(o1)[C@@](O)(C(F)(F)F)CCCCC[C@@H]1CCCN21, Nc1cc(C(F)(F)F)c2nc1-c1nnc(o1)[C@@](O)(C(F)(F)F)CCCCCC(c1ccccn1)N2 (stereo partly specified), Nc1cc(C(F)(F)F)c2nc1-c1nnc(o1)[C@@](O)(C(F)(F)F)CCCCC[C@@H]1CCCN21, Nc1cc(C(F)(F)F)c2nc1-c1nnc(o1)[C@@](O)(C(F)(F)F)CCCCCC1(CCC1)N2, Nc1cc(C(F)(F)F)c2nc1-c1nnc(o1)[C@@](O)(C(F)(F)F)CCCCCC1(CCCCC1)N2, Nc1cc(Br)c2nc1-c1nnc(o1)[C@@](O)(C(F)(F)F)CCCCC[C@@H]1CCCN21
